Source: patent US20240299328A1, “COMPOSITIONS COMPRISING 15-HEPE AND METHODS OF TREATING AND/OR PREVENTING HEMATOLOGIC DISORDERS AND RELATED DISEASES” (Afimmune Limited, priority 2023, published 2024)

Columns and labels:
NAFLD patients = assay: Phase IIa NAFLD study: OWL liver care diagnostic test; type: in vivo, human; conditions: for Change in Diagnosis (Week 16 vs. baseline): Improvement / Change in Diagnosis (Week 16 vs. baseline): Stable / Change in Diagnosis (Week 16 vs. baseline): Worsening: number of patients
Text: OWL Liver Care is a test that was developed based on the plasma lipidomics in biopsy-confirmed NASH patients and provides high predictive values. OWL Liver Care has an area under the curve (AUC) of 0.88 for distinguishing NAFLD and normal liver patients and an AUC of 0.79 for distinguishing NAFLD without steatohepatitis and NASH patients.

[1] = test system: humanized sickle cell (SS) mice; assay: Humanized SCD (SS) mice under normoxia, 6 weeks treatment; type: in vivo; conditions: 1000 mg/Kg/d for 6 weeks
Experimental: Animals and design of the study: Experiments were performed on 4-5 months-old sex matched healthy control (Hba^tm1(HBA) Tow Hbb^tm3(HBG1, HBB) Tow) and SCD (Hba^tm1(HBA)Tow Hbb^tm2(HBG1.HBB*)Tow) mice. The study used 4-5 months-old mice. The sickle cell related organ damage is not so severe to generate confounding factors when the impact of H/R induced stress is evaluated. This is also corroborated by the observation of Kasztan M et al who show gender-related differences in kidney function of humanized SCD mice becoming significant after 24 weeks (6 months) of age. The size of the mouse groups was established based on studies with the same mouse model for SCD generated by us and other labs. Mice were randomly assigned to the different treatment groups and analysis. Healthy and SS mice were treated with ether vehicle (hydroxypropyl methyl cellulose, HPMC, 0.5%) or Epeleuton in HPMC 0.5% (1000 mg/kg/day) administrated by gavage for 6 weeks. […] When indicated, mice underwent a hypoxia/reoxygenation stress (H/R): 10 hours hypoxia (8% oxygen) followed by 3 hours reoxygenation (21% oxygen) to mimic acute vaso-occlusive crisis as previously described. Whole blood and organs were collected from each mouse under isoflurane anesthesia. Organs were immediately removed and divided into two portions which were either immediately frozen in liquid nitrogen or fixed in 10% formalin and embedded in paraffin for histology. Hematological parameters were evaluated with a Sysmex XN-1000 Hematology Analyzer and red cell morphology was evaluated as previously reported. Biochemical assays were performed using standard biochemical assays, as previously reported. Plasmatic Pentraxin 2 and CCL-2 and CXCL-2 were measured respectively using the Mouse Pentraxin 2/SAP Quantikine ELISA Kit and the next generation ELISA kit according to the manufacturer's instruction.
Immunoblot analysis: Packed red cells were lysed in ice-cold phosphate lysis buffer (5 mM Na2HPO4, pH 8.0, containing protease inhibitor cocktail tablets, 3 mM benzamidine final concentration, 1 mM Na3VO4 final concentration) and centrifuged 10 min at 4° C. at 12,000 g. Red cell membrane (ghost) and cytosol fractions were obtained as previously reported. Frozen lung, kidney and aorta from each studied group were homogenized and lysed with iced lyses buffer (150 mM NaCl, 25 mM bicine, 0.1% SDS, 2% Triton X-100, 1 mM EDTA, protease inhibitor cocktail tablets, 1 mM Na3VO4 final concentration) then centrifuged 30 min at 4° C. at 12,000 g. Specific antibodies used are: anti Phospho-Tyrosine (clone PY99 from SCBT, Santa Cruz, CA (dilution 1:3000, 75 μg loaded) and clone 4G10 from Merck KGaA, Darmstadt, Germany (dilution 1:1600, 75 μgr loaded)); anti Phospho (Ser536) NF-kB p65 (dilution 1:1000, 75 μg loaded) and anti NF-kB p65 (clone C22B4) (dilution 1:1000, 75 μgr loaded) from Cell Signaling Technology (Danvers, MA, USA); anti-NLRP3/NALP3 from Vinci-Biochem Srl, Vinci, Italy (dilution 1:1000, 75 μgr loaded); anti Endothelin-1 (ET-1) form AbCam, Cambridge, UK (dilution 1:1000, 75 μgr loaded); anti VCAM-1 (R and D Systems, Minneapolis, MN, USA (dilution 1:1000, 40 μgr loaded)); anti ICAM-1 (clone EP1442Y, dilution 1:1000, 75 μgr loaded, AbCam, Cambridge, UK); anti TXAS-1 (Cayman, Ann Arbor, MI, USA); anti Nrf2-phospho-S40 (Clone EP1809Y, dilution 1:1000, 75 μgr loaded, AbCam, Cambridge, UK); anti-Nrf2 (dilution 1:1000, 75 μgr loaded, AbCam, Cambridge, UK); anti Nqo1 from Santa Cruz Biotechnology, Inc, CA, USA (clone C-19; dilution 1:1000, 75 μgr/μl loaded); anti-heme oxygenase 1(HO-1) form SCBT (Santa Cruz, CA, USA (dilution 1:1000, 50 μgr loaded); E-selectin (H-300) (dilution 1:1000, 75 μgr loaded); anti GAPDH from SCBT (Santa Cruz, CA, USA (dilution 1:5000, 50 μgr loaded)); anti Actin from SCBT (Santa Cruz, CA, USA (clone 2A3, dilution 1:1000, 50 μgr/loaded)). […]

rats = conditions: 26-week oral, once daily; cited from earlier work
[2] = 1 g DS102 arm, OWL baseline diagnosis NASH
[3] = 1 g DS102 arm, OWL baseline diagnosis No NAFLD
[4] = 1 g DS102 arm, OWL baseline diagnosis Steatosis
[5] = 2 g DS102 arm, OWL baseline diagnosis NASH
[6] = 2 g DS102 arm, OWL baseline diagnosis No NAFLD
[7] = 2 g DS102 arm, OWL baseline diagnosis Steatosis

SMILES: CC/C=C\C[C@H](O)/C=C/C=C\C/C=C\C/C=C\CCCC(=O)OCC [DS102, 15(S)-hydroxy-(5Z,8Z,11Z,13E,17Z)-eicosapentaenoic acid ethyl ester]
- Change in Diagnosis (Week 16 vs. baseline): Improvement (NAFLD patients; [2]): 5
- Change in Diagnosis (Week 16 vs. baseline): Stable (NAFLD patients; [2]): 14
- Change in Diagnosis (Week 16 vs. baseline): Stable (NAFLD patients; [3]): 3
- Change in Diagnosis (Week 16 vs. baseline): Worsening (NAFLD patients; [3]): 1
- Change in Diagnosis (Week 16 vs. baseline): Stable (NAFLD patients; [4]): 2
- Change in Diagnosis (Week 16 vs. baseline): Worsening (NAFLD patients; [4]): 3
- Change in Diagnosis (Week 16 vs. baseline): Improvement (NAFLD patients; [5]): 5
- Change in Diagnosis (Week 16 vs. baseline): Stable (NAFLD patients; [5]): 7
- Change in Diagnosis (Week 16 vs. baseline): Stable (NAFLD patients; [6]): 2*, **
- Change in Diagnosis (Week 16 vs. baseline): Worsening (NAFLD patients; [6]): 1
- Change in Diagnosis (Week 16 vs. baseline): Improvement (NAFLD patients; [7]): 1
- Change in Diagnosis (Week 16 vs. baseline): Stable (NAFLD patients; [7]): 9
- Change in Diagnosis (Week 16 vs. baseline): Worsening (NAFLD patients; [7]): 4
- OWL liver care diagnosed NASH (NAFLD patients; NAFLD patients, dose dependent, vs placebo at Week 16): significantly improved and normalized
- tolerability and body weight [1]: well tolerated without major changes in body weight
- ALT ([1]; normoxia): significant reduction
- AST ([1]; normoxia): no change
- CRP ([1]; normoxia): significant reduction
- circulating neutrophils ([1]; normoxia): significant reduction
- expression of VCAM-1, ICAM1 and endothelin-1 (ET-1) in lungs, kidneys, livers ([1]; normoxia): significantly reduction
- liver protein oxidation ([1]; normoxia): marked reduction
- pentraxin-2 ([1]; normoxia): trend toward a reduction
- plasma CCL2/MCP1 ([1]; normoxia): lower
- BUN ([1]; normoxia, vs vehicle): no change
- activation of NF-kB in lungs, kidneys, and livers ([1]; normoxia, vs vehicle): significantly reduced
- expression of ICAM-1 and ET-1 in isolated aortas ([1]; normoxia, vs vehicle): significantly down-regulated
- serum creatinine ([1]; normoxia, vs vehicle): trend toward a reduction
- hematocrit or reticulocyte counts ([1]; normoxic conditions): no significant changes
- highest dose tested, showing no adverse effects (rats): 1 mg/kg/day
